Columns and labels:
[1] = set-up: method as in Kielstein et al. [2009]; conditions: ref Kielstein et al. [2009]; cited from earlier work
[2] = system: MDCK-VC cells; assay: Transcellular basal to apical transport across MDCK-VC control cell monolayers; type: in vitro ADME; conditions: 1 µM, 1 h
Description: Transcellular transport in MDCK-OATP4C1-P-gp double-transfectants and respective MDCK-OATP4C1 and MDCK-P-gp single-transfectants as well as in the MDCK-VC control cell line was analyzed as previously described (Taghikhani et al. [2017]). Cells were cultured in Transwell membrane inserts (14 mm diameter, 0.4 µm pore size; Greiner Bio-One, Frickenhausen, Germany) in an initial density of 5 × 10^5 cells/well. Cells were cultivated at 37 °C for 48 h before inducing them by replacing the medium with fresh medium containing 10 mM of sodium butyrate. After 24 h of further incubation, cells were used for transcellular transport studies.
To study the transcellular transport, cells were washed with pre-warmed (37 °C) uptake buffer applied to both the basolateral and apical compartment. […] After incubating the cells for stated time points, the amount of radioactivity on the apical compartment was measured by liquid scintillation counting.
Concentration dependency of transcellular transport of ADMA and L-homoarginine was studied by applying the respective compound in concentrations of 1, 20, 50 and 100 µM on the basolateral compartment of MDCK transfectants. […] Cells were lysed and the cellular protein content was quantified as described. 400 µl (or 80 µl for time-dependency analysis) of the applied donor solutions were also analyzed by scintillation counting as reference. […]

[3] = system: human OATP4C1; assay: Transcellular basal to apical (vectorial) transport across MDCK-OATP4C1 cell monolayers; conditions: 1 h incubation
[4] = system: human OATP4C1 and human P-gp; assay: Transcellular basal to apical (vectorial) transport across double-transfected MDCK-OATP4C1-P-gp cell monolayers; conditions: for Time-dependent transcellular transport in MDCK-OATP4C1-P-gp cells compared to the other tested cell lines: all time points 1, 2, 3 and 4 h; for Transport ratio MDCK-OATP4C1-P-gp/MDCK-VC: 50 µM, basolateral to apical; for Average ratio of vectorial transport (relative to MDCK-VC cells): MDCK-OATP4C1-P-gp, 1 h incubation
[5] = target: human P-gp (Homo sapiens, UniProt P08183); assay: Transcellular basal to apical (vectorial) transport across MDCK-P-gp cell monolayers; conditions: for Average ratio of vectorial transport (relative to MDCK-VC cells): MDCK-P-gp, 1 h incubation
Sequence of human P-gp (P08183 whole entry): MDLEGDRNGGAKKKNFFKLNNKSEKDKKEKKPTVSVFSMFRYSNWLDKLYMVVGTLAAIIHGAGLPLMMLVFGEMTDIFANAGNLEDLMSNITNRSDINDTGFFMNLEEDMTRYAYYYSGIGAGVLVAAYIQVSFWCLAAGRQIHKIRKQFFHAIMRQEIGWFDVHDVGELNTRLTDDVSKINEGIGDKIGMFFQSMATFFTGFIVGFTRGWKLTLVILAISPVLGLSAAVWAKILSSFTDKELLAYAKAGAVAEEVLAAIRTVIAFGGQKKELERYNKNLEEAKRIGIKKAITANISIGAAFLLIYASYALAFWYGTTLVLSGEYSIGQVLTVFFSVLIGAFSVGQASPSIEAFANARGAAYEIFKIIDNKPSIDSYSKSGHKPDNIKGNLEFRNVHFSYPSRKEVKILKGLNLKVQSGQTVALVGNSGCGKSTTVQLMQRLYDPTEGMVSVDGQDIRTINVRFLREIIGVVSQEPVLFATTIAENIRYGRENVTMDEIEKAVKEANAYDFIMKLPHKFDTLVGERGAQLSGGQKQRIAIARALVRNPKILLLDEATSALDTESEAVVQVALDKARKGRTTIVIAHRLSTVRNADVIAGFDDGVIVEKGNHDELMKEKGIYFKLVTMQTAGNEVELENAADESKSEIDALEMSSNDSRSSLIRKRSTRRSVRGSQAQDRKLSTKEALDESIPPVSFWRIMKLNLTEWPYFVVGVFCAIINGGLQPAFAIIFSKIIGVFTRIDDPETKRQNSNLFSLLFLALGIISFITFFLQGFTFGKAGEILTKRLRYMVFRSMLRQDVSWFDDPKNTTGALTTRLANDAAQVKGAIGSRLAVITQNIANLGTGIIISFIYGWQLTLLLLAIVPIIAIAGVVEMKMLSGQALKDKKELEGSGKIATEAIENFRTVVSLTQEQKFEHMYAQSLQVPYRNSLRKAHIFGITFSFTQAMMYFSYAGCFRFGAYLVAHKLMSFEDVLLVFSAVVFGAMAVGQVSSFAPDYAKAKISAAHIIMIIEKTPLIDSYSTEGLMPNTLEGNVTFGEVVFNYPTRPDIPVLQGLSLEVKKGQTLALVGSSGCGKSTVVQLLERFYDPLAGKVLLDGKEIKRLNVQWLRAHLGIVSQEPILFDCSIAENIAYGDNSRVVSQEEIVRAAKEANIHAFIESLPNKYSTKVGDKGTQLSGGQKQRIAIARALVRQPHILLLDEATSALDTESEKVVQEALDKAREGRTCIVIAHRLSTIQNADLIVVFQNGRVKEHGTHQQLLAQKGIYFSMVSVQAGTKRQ

[6] = system: OATP4C1; set-up: method as in Taghikhani et al. [2019]; conditions: ref Taghikhani et al. [2019]; read-out: Km value as substrate of OATP4C1; cited from earlier work
[7] = system: CAT1; set-up: method as in Chafai et al. [2017]; conditions: ref Chafai et al. [2017]; read-out: Km value for CAT1-mediated uptake; cited from earlier work

Structure (SMILES)	Average ratio of vectorial transport (relative to MDCK-VC cells) ([3]; 1 µM basal)	Average ratio of vectorial transport (relative to MDCK-VC cells) ([3]; 20 µM basal)	Average ratio of vectorial transport (relative to MDCK-VC cells) ([3]; 50 µM basal)	Average ratio of vectorial transport (relative to MDCK-VC cells) ([3]; 100 µM basal)	Time-dependent transcellular transport in MDCK-OATP4C1-P-gp cells compared to the other tested cell lines ([4]; 1 µM)	Transport ratio MDCK-OATP4C1-P-gp/MDCK-VC [4]	Average ratio of vectorial transport (relative to MDCK-VC cells) ([4]; 1 µM basal)	Average ratio of vectorial transport (relative to MDCK-VC cells) ([4]; 20 µM basal)	Average ratio of vectorial transport (relative to MDCK-VC cells) ([4]; 50 µM basal)	Average ratio of vectorial transport (relative to MDCK-VC cells) ([4]; 100 µM basal)	Average ratio of vectorial transport (relative to MDCK-VC cells) ([5]; 1 µM basal)	Average ratio of vectorial transport (relative to MDCK-VC cells) ([5]; 20 µM basal)	Average ratio of vectorial transport (relative to MDCK-VC cells) ([5]; 50 µM basal)	Average ratio of vectorial transport (relative to MDCK-VC cells) ([5]; 100 µM basal)	also measured
CN(C)C(N)=NCCC[C@H](N)C(=O)O [ADMA, asymmetric dimethylarginine]	1.17	1.19	1.14	1.20	significantly higher	2.0 fold	1.92	1.87	2.00	1.83	1.10	1.19	1.20	1.30	Share excreted unchanged into urine [1]: 20%; Share taken up into proximal tubule cells that is metabolized (e.g. by DDAH1) [1]: ~80%; Transcellular transport rate [2]: 4.8 ± 0.4 pmol × mg protein^−1 × min^−1; Transport ratio MDCK-OATP4C1-P-gp vs MDCK-VC ([4]; 1 µM, 1 h): 1.92 fold; Transcellular transport rate ([4]; MDCK-OATP4C1-P-gp cells, 1 µM, basal to apical, 1 h): 9.2 ± 1.2 pmol × mg protein^−1 × min^−1
NC(N)=NCCCC[C@H](N)C(=O)O [L-homoarginine]	1.33	1.92	2.09	2.31	significantly higher	3.4 fold	3.44	3.94	3.41	6.65	1.11	1.61	1.45	1.43	Km [6]: 49.9 µM; Km [7]: 175 µM
C[C@H]1O[C@@H](O[C@H]2[C@@H](O)C[C@H](O[C@H]3[C@@H](O)C[C@H](O[C@H]4CC[C@@]5(C)[C@H](CC[C@@H]6[C@@H]5C[C@@H](O)[C@]5(C)[C@@H](C7=CC(=O)OC7)CC[C@]65O)C4)O[C@@H]3C)O[C@@H]2C)C[C@H](O)[C@@H]1O [digoxin, reference compound]															Transcellular transport in MDCK-P-gp in comparison to MDCK-VC ([5]; 5 µM, incubation time 1 h): 1.7 fold
